According to ChEMBL document CHEMBL1201862, “PubChem BioAssay data set” (2004):
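Protocol summary: plate cells (96-well), add compound at 5 concentrations, incubate 48 h, interpolate endpoints linearly. At the GI50, growth is halved.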 Calls of active or inactive are those of the source. No stated cut-off is given here; in the data, active = GI50 up to about 1.1 µM and inactive = higher.

What was measured:
Test in all cases: NCI anticancer screen, dose series, 48 h
[1] = tested on: MOLT-4
[2] = tested on: SN12C
[3] = tested on: SK-OV-3
[4] = tested on: 786-0
[5] = tested on: CCRF-CEM
[6] = tested on: DMS-114
[7] = tested on: SR
[8] = tested on: OVCAR-8
[9] = tested on: LOX IMVI
[10] = tested on: K562
[11] = tested on: DMS-273
[12] = tested on: OVCAR-4
[13] = tested on: ACHN
[14] = tested on: SW-620
[15] = tested on: HT-29
[16] = tested on: LXFL 529
[17] = tested on: TK-10
[18] = tested on: UACC-257
[19] = tested on: HL-60

## CC(=O)OC1COC(N2C(=O)C(=O)c3ccccc32)C(OC(C)=O)C1OC(C)=O (stereo unspecified)
[1]
  GI50: > 100 µM (inactive)
[2]
  GI50: > 100 µM (inactive)
[3]
  GI50: > 100 µM (inactive)
[4]
  GI50: > 100 µM (inactive)
[5]
  GI50: > 100 µM (inactive)
[6]
  GI50: > 100 µM (inactive)
[7]
  GI50: > 100 µM (inactive)
[8]
  GI50: > 100 µM (inactive)
[9]
  GI50: > 100 µM (inactive)
[10]
  GI50: > 100 µM (inactive)
[11]
  GI50: > 100 µM (inactive)
[12]
  GI50: > 100 µM (inactive)
[13]
  GI50: > 100 µM (inactive)
[14]
  GI50: > 100 µM (inactive)
[15]
  GI50: > 100 µM (inactive)
[16]
  GI50: > 100 µM (inactive)
[17]
  GI50: > 100 µM (inactive)
[18]
  GI50: > 100 µM (inactive)

## CCS/C(=N\c1ccccc1)SC
[1]
  GI50: > 100 µM (inactive)
[2]
  GI50: > 100 µM (inactive)
[3]
  GI50: > 100 µM (inactive)
[4]
  GI50: > 100 µM (inactive)
[5]
  GI50: > 100 µM (inactive)
[6]
  GI50: > 100 µM (inactive)
[8]
  GI50: > 100 µM (inactive)
[9]
  GI50: > 100 µM (inactive)
[10]
  GI50: > 100 µM (inactive)
[11]
  GI50: > 100 µM (inactive)
[12]
  GI50: > 100 µM (inactive)
[13]
  GI50: > 100 µM (inactive)
[19]
  GI50: > 100 µM (inactive)
[14]
  GI50: > 100 µM (inactive)
[15]
  GI50: > 100 µM (inactive)
[16]
  GI50: > 100 µM (inactive)
[17]
  GI50: > 100 µM (inactive)
[18]
  GI50: > 100 µM (inactive)

## CCCN(CCC)C1=Nc2ccccc2-n2cnnc2C1
[1]
  GI50: > 100 µM (inactive)
[2]
  GI50: > 100 µM (inactive)
[4]
  GI50: > 100 µM (inactive)
[5]
  GI50: > 100 µM (inactive)
[6]
  GI50: > 100 µM (inactive)
[7]
  GI50: > 100 µM (inactive)
[8]
  GI50: > 100 µM (inactive)
[9]
  GI50: > 100 µM (inactive)
[10]
  GI50: > 100 µM (inactive)
[11]
  GI50: > 100 µM (inactive)
[12]
  GI50: > 100 µM (inactive)
[13]
  GI50: > 100 µM (inactive)
[19]
  GI50: > 100 µM (inactive)
[14]
  GI50: > 100 µM (inactive)
[15]
  GI50: > 100 µM (inactive)
[16]
  GI50: > 100 µM (inactive)
[17]
  GI50: > 100 µM (inactive)

## COc1ccc(C(c2c(O)c3ccccc3n(-c3ccccc3)c2=O)c2c(O)c3ccccc3n(-c3ccccc3)c2=O)cc1
[1]
  GI50: > 100 µM (inactive)
[2]
  GI50: > 100 µM (inactive)
[4]
  GI50: 25.4 µM (inactive)
[5]
  GI50: > 100 µM (inactive)
[6]
  GI50: > 100 µM (inactive)
[7]
  GI50: 72.4 µM (inactive)
[9]
  GI50: > 100 µM (inactive)
[10]
  GI50: > 100 µM (inactive)
[11]
  GI50: > 100 µM (inactive)
[12]
  GI50: > 100 µM (inactive)
[13]
  GI50: > 100 µM (inactive)
[14]
  GI50: > 100 µM (inactive)
[16]
  GI50: > 100 µM (inactive)
[17]
  GI50: > 100 µM (inactive)

## COC(=O)C[S+]([O-])c1ccccc1 (stereo unspecified)
[1]
  GI50: 10.8 µM (inactive)
[2]
  GI50: 17.6 µM (inactive)
[3]
  GI50: 60.7 µM (inactive)
[4]
  GI50: 26.7 µM (inactive)
[5]
  GI50: 7.67 µM (inactive)
[6]
  GI50: 20.8 µM (inactive)
[8]
  GI50: 27.5 µM (inactive)
[9]
  GI50: 21.8 µM (inactive)
[10]
  GI50: 35.9 µM (inactive)
[11]
  GI50: 28.9 µM (inactive)
[12]
  GI50: 41.2 µM (inactive)
[13]
  GI50: 33.7 µM (inactive)
[19]
  GI50: 15.5 µM (inactive)
[14]
  GI50: 38.3 µM (inactive)
[15]
  GI50: 36.6 µM (inactive)
[16]
  GI50: 31.8 µM (inactive)
[17]
  GI50: 44 µM (inactive)
[18]
  GI50: 60.4 µM (inactive)

## CC1=C(CO)C(=O)O[C@@H]([C@@H](C)[C@H]2CC[C@H]3[C@@H]4C[C@H]5O[C@]56[C@@H](O)C=CC(=O)[C@]6(C)[C@H]4CC[C@]23C)C1 [WITHAFERIN A]
[1]
  GI50: 0.187 µM (active)
[4]
  GI50: 0.401 µM (active)
[5]
  GI50: 0.113 µM (active)
[6]
  GI50: 0.478 µM (active)
[7]
  GI50: 0.189 µM (active)
[8]
  GI50: 0.374 µM (active)
[10]
  GI50: 0.193 µM (active)
[11]
  GI50: 0.405 µM (active)
[12]
  GI50: 0.566 µM (active)
[13]
  GI50: 1.7 µM (inactive)
[19]
  GI50: 0.0394 µM (active)
[14]
  GI50: 0.199 µM (active)
[15]
  GI50: 0.417 µM (active)
[16]
  GI50: 0.333 µM (active)
[17]
  GI50: 0.641 µM (active)
[18]
  GI50: 1.59 µM (inactive)
